Data reported in ChEMBL document CHEMBL4418318, “Dynamin-1-like protein inhibitors” (2018).

Molecular target: Dynamin-1-like protein (Homo sapiens, UniProt O00429)
Experiment: Inhibition of DRP1 (unknown origin) using GTP as substrate incubated for 20 mins by malachite green reagent based colorimetric assay

Chain of Dynamin-1-like protein (O00429 whole entry): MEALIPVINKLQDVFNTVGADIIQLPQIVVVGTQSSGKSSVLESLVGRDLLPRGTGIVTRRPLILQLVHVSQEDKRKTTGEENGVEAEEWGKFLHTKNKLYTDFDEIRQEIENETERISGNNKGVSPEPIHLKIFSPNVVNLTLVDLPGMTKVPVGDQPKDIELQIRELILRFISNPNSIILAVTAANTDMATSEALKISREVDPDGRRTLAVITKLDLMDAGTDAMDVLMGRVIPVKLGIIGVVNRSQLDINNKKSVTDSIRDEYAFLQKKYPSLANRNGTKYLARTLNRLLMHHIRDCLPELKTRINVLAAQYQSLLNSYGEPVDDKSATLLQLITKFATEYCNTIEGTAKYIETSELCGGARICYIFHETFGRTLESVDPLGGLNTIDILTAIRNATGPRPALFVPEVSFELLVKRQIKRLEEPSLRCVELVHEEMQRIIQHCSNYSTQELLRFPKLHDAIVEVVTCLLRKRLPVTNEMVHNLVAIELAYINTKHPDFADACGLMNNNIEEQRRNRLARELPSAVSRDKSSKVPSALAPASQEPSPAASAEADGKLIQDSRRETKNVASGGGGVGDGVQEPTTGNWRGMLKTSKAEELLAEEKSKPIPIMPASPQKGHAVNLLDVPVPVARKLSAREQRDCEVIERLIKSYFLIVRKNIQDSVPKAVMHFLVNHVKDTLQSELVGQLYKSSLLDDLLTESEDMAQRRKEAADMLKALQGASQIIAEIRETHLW

IC50: > 100 µM
SMILES: O=C(O)c1ccc(NC(=O)c2cc(Br)cn2Cc2csc(N3CCCCC3)n2)cc1
